Source: patent US8859584B2, “TRPV1 antagonists” (AbbVie Inc., priority 2011, dated 2014)
pIC50: −log10 of the molar value.

Experiments:
[1] = molecular target: T1, human TRPV1 (Homo sapiens, UniProt Q8NER1); assay: Acid Activation Assay (pH 5.0, FLIPR intracellular Ca2+, recombinant HEK293 cells); type: cell-based; conditions: percentage of maximal pH 5.0-induced response remaining; HEK293 hTRPV1; max concentration 37.5 μM
T1 construct: expressed in transfected cells
Summary of the method: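 HEK293 cells stably expressing recombinant hTRPV1 were loaded with calcium dye for 90-120 min at 25° C and pre-treated with compound for 3 min before a pH 5.0 (DPBS/MES) challenge. Peak FLIPR fluorescence over baseline is given as percentage of the maximal pH 5.0-induced response.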

[2] = molecular target: T1, human TRPV1; assay: Capsaicin Activation Assay (FLIPR intracellular Ca2+, recombinant HEK293 cells); type: cell-based; conditions: recombinant HEK293 cells expressing hTRPV1; 50 nM capsaicin; read-out: human TRPV1 capsaicin IC50

T1 sequence (Q8NER1 whole entry): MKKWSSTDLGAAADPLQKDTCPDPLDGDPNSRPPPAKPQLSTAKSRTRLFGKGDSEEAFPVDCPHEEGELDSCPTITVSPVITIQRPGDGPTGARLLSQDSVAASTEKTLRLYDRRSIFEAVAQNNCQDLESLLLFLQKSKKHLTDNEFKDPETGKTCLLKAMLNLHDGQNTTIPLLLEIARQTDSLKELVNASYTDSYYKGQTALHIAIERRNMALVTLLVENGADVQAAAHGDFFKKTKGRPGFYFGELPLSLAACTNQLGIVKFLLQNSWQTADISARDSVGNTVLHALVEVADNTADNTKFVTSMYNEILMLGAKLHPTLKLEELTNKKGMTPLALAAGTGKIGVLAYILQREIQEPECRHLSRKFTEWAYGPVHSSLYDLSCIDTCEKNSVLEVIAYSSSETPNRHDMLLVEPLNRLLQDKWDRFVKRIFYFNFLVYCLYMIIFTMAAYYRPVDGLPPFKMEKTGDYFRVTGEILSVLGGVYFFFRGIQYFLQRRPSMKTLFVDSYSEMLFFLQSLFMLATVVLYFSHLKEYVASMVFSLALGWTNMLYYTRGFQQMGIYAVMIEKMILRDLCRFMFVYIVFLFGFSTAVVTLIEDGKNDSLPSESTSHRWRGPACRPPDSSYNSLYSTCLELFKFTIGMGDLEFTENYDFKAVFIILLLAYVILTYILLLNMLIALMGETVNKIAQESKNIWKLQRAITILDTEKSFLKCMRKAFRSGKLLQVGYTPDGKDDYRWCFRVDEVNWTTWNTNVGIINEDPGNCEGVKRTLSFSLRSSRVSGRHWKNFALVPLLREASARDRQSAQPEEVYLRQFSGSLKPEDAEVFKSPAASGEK

Structure (SMILES) | human TRPV1 H+ (max % remain) [1] [%] | pIC50 [2]
COc1ccc2c(c1)OC(c1ccc(Cl)cc1)CC2NC(=O)Nc1cccc2c1CC(O)C2 (stereo not shown) [Example 122, 1-[2-(4-chlorophenyl)-7-methoxy-3,4-dihydro-2H-chromen-4-yl]-3-(2-hydroxy-2,3-dihydro-1H-inden-4-yl)urea] | 14 | 6.15
C[C@]1(CF)C[C@@H](NC(=O)Nc2cccc3c2C[C@H](O)C3)c2cccc(F)c2O1 [Example 66, 1-[(2R,4R)-8-fluoro-2-(fluoromethyl)-2-methyl-3,4-dihydro-2H-chromen-4-yl]-3-[(2R)-2-hydroxy-2,3-dihydro-1H-inden-4-yl]urea] | 86 | 6.55
O=C(Nc1cccc2c1C[C@H](O)C2)N[C@@H]1CC2(CCC2)Oc2cc(C(F)(F)F)ccc21 [Example 42, 1-[(2R)-2-hydroxy-2,3-dihydro-1H-inden-4-yl]-3-[(4R)-7-(trifluoromethyl)-3,4-dihydrospiro[chromene-2,1′-cyclobutan]-4-yl]urea] | 20 | 7.27
O=C(Nc1cccc2c1CC(O)C2)NC1c2ccccc2OCC1Cc1ccc(Cl)c(Cl)c1 (stereo not shown) [Example 112, 1-[3-(3,4-dichlorobenzyl)-3,4-dihydro-2H-chromen-4-yl]-3-(2-hydroxy-2,3-dihydro-1H-inden-4-yl)urea] | 77 | 6.01
CC1(C)C[C@@H](NC(=O)Nc2cccc3c2C[C@H](O)C3)c2ccc(C(F)(F)F)cc2O1 [Example 3, 1-[(4R)-2,2-dimethyl-7-(trifluoromethyl)-3,4-dihydro-2H-chromen-4-yl]-3-[(2R)-2-hydroxy-2,3-dihydro-1H-inden-4-yl]urea] | 55 | 7.57
O=C(Nc1c(F)ccc2c1C[C@H](O)C2)N[C@@H]1CC(CF)(CF)Oc2cc(Cl)ccc21 [Example 175, 1-[(4R)-7-chloro-2,2-bis(fluoromethyl)-3,4-dihydro-2H-chromen-4-yl]-3-[(2R)-5-fluoro-2-hydroxy-2,3-dihydro-1H-inden-4-yl]urea] | 37 | 6.33
CC(C)(C)c1ccc2c(c1)CC[C@H]2NC(=O)Nc1cccc2c1C[C@H](O)C2 [Example 50, 1-[(1R)-5-tert-butyl-2,3-dihydro-1H-inden-1-yl]-3-[(2R)-2-hydroxy-2,3-dihydro-1H-inden-4-yl]urea] | 69 | 7.49
CC1(C)C[C@@H](NC(=O)Nc2ccc(F)c3c2C[C@@H](O)C3)c2ccc(Cl)cc2O1 [Example 167, 1-[(4R)-7-chloro-2,2-dimethyl-3,4-dihydro-2H-chromen-4-yl]-3-[(2R)-7-fluoro-2-hydroxy-2,3-dihydro-1H-inden-4-yl]urea] | 51 | 6.70
O=C(Nc1cccc2c1C[C@H](O)C2)NC1COc2cc(Cl)ccc2C1 (stereo partly drawn) [Example 99, 1-(7-chloro-3,4-dihydro-2H-chromen-3-yl)-3-[(2R)-2-hydroxy-2,3-dihydro-1H-inden-4-yl]urea] | 75 | 6.24
CN1CC[C@@H](NC(=O)Nc2cccc3c2C[C@@H](O)C3)c2ccc(C(F)(F)F)cc21 [Example 84, 1-[(2S)-2-hydroxy-2,3-dihydro-1H-inden-4-yl]-3-[(4R)-1-methyl-7-(trifluoromethyl)-1,2,3,4-tetrahydroquinolin-4-yl]urea] | 13 | 7.10
Cc1cccnc1N1CC=C(C(=O)Nc2ccc(S(=O)(=O)C(F)(F)F)cc2)CC1 [E, reference compound] | 2 | 7.00
COc1ccc(C2COc3ccccc3C2NC(=O)Nc2cccc3c2CC(O)C3)cc1 (stereo not shown) [Example 116, 1-(2-hydroxy-2,3-dihydro-1H-inden-4-yl)-3-[3-(4-methoxyphenyl)-3,4-dihydro-2H-chromen-4-yl]urea] | 94 | 5.39
O=C(Nc1cccc2c1C[C@@H](O)C2)N[C@H]1CC2(CCC2)Oc2ccc(F)cc21 [Example 102, 1-[(4S)-6-fluoro-3,4-dihydrospiro[chromene-2,1′-cyclobutan]-4-yl]-3-[(2S)-2-hydroxy-2,3-dihydro-1H-inden-4-yl]urea] | 63 | 5.55
COc1ccc2c(c1)OCC(Cc1ccc(Cl)c(Cl)c1)C2NC(=O)Nc1cccc2c1CC(O)C2 (stereo not shown) [Example 114, 1-[3-(3,4-dichlorobenzyl)-7-methoxy-3,4-dihydro-2H-chromen-4-yl]-3-(2-hydroxy-2,3-dihydro-1H-inden-4-yl)urea] | 43 | 6.14
O=C(Nc1cccc2c1C[C@H](O)C2)N[C@@H]1CC(CF)(CF)Oc2c(F)cccc21 [Example 70, 1-[(4R)-8-fluoro-2,2-bis(fluoromethyl)-3,4-dihydro-2H-chromen-4-yl]-3-[(2R)-2-hydroxy-2,3-dihydro-1H-inden-4-yl]urea] | 99 | 6.66
O=C(Nc1ccc(F)c2c1C[C@H](O)C2)N[C@@H]1CC2(CCC2)Oc2ccc(F)cc21 [Example 143, 1-[(4R)-6-fluoro-3,4-dihydrospiro[chromene-2,1′-cyclobutan]-4-yl]-3-[(2S)-7-fluoro-2-hydroxy-2,3-dihydro-1H-inden-4-yl]urea] | 3 | 5.96
COc1ccc2c(c1)OCCC2NC(=O)Nc1cccc2c1CC(O)C2 (stereo not shown) [Example 107, 1-(2-hydroxy-2,3-dihydro-1H-inden-4-yl)-3-(7-methoxy-3,4-dihydro-2H-chromen-4-yl)urea] | 55 | 5.66
O=C(Nc1cccc2c1CC(O)C2)NC1c2ccccc2CC1Cc1ccccc1 (stereo not shown) [Example 125, 1-(2-benzyl-2,3-dihydro-1H-inden-1-yl)-3-(2-hydroxy-2,3-dihydro-1H-inden-4-yl)urea] | 83 | 5.46
O=C(Nc1cccc2c1CC(O)C2)NC1c2ccccc2OCC1c1ccccc1 (stereo not shown) [Example 108, 1-(2-hydroxy-2,3-dihydro-1H-inden-4-yl)-3-(3-phenyl-3,4-dihydro-2H-chromen-4-yl)urea] | 97 | 5.10
CC1(C)C[C@@H](NC(=O)Nc2cccc3c2C[C@@H](O)C3)c2cccc(C(F)(F)F)c2O1 [Example 34, 1-[(4R)-2,2-dimethyl-8-(trifluoromethyl)-3,4-dihydro-2H-chromen-4-yl]-3-[(2S)-2-hydroxy-2,3-dihydro-1H-inden-4-yl]urea] | 18 | 7.92
CC1(C)C[C@@H](NC(=O)Nc2cccc3c2C[C@@H](O)C3)c2ccc(F)c(F)c2O1 [Example 38, 1-[(4R)-7,8-difluoro-2,2-dimethyl-3,4-dihydro-2H-chromen-4-yl]-3-[(2S)-2-hydroxy-2,3-dihydro-1H-inden-4-yl]urea] | 43 | 7.43
Cc1c(F)ccc2c1OC(C)(C)C[C@H]2NC(=O)Nc1cccc2c1C[C@H](O)C2 [Example 62, 1-[(4R)-7-fluoro-2,2,8-trimethyl-3,4-dihydro-2H-chromen-4-yl]-3-[(2R)-2-hydroxy-2,3-dihydro-1H-inden-4-yl]urea] | 86 | 7.70
O=C(Nc1cccc2c1C[C@H](O)C2)N[C@H]1CC2(CCC2)Oc2ccc(F)cc21 [Example 101, 1-[(4S)-6-fluoro-3,4-dihydrospiro[chromene-2,1′-cyclobutan]-4-yl]-3-[(2R)-2-hydroxy-2,3-dihydro-1H-inden-4-yl]urea] | 90 | 5.92
CC1(C)C[C@@H](NC(=O)Nc2cccc3c2C[C@H](O)C3)c2ccc(OC(F)(F)F)cc2O1 [Example 30, 1-[(4R)-2,2-dimethyl-7-(trifluoromethoxy)-3,4-dihydro-2H-chromen-4-yl]-3-[(2R)-2-hydroxy-2,3-dihydro-1H-inden-4-yl]urea] | 39 | 7.38
O=C(Nc1ccc(F)c2c1C[C@H](O)C2)N[C@@H]1CC(CF)(CF)Oc2ccc(F)cc21 [Example 141, 1-[(4R)-6-fluoro-2,2-bis(fluoromethyl)-3,4-dihydro-2H-chromen-4-yl]-3-[(2S)-7-fluoro-2-hydroxy-2,3-dihydro-1H-inden-4-yl]urea] | 5 | 5.41
CC1(C)C[C@@H](NC(=O)Nc2ccc(F)c3c2C[C@@H](O)C3)c2ccc(C(F)(F)F)cc2O1 [Example 160, 1-[(4R)-2,2-dimethyl-7-(trifluoromethyl)-3,4-dihydro-2H-chromen-4-yl]-3-[(2R)-7-fluoro-2-hydroxy-2,3-dihydro-1H-inden-4-yl]urea] | 61 | 6.89
CC1(C)C[C@@H](NC(=O)Nc2cccc3c2C[C@H](O)C3)c2ccc(C(F)(F)F)nc2O1 [Example 105, 1-[(4R)-2,2-dimethyl-7-(trifluoromethyl)-3,4-dihydro-2H-pyrano[2,3-b]pyridin-4-yl]-3-[(2R)-2-hydroxy-2,3-dihydro-1H-inden-4-yl]urea] | 39 | 6.82
CCC1(CC)C[C@@H](NC(=O)Nc2cccc3c2C[C@H](O)C3)c2cc(F)ccc2O1 [Example 58, 1-[(4R)-2,2-diethyl-6-fluoro-3,4-dihydro-2H-chromen-4-yl]-3-[(2R)-2-hydroxy-2,3-dihydro-1H-inden-4-yl]urea] | 67 | 7.62
C[C@]1(CF)C[C@@H](NC(=O)Nc2ccc3c(c2)C(O)C3)c2ccccc2O1 (stereo partly drawn) [Example 132, 1-[(2R,4R)-2-(fluoromethyl)-2-methyl-3,4-dihydro-2H-chromen-4-yl]-3-(8-hydroxybicyclo[4.2.0]octa-1,3,5-trien-3-yl)urea] | 95 | 4.51
